{
  "source": "patent US9029327B2",
  "about": "“Vaccine” (Affiris AG, priority 2009, dated 2015)",
  "key": {"[1]": {"details": "% of the activity of Ang II; cited from earlier work"}, "Ang II peptide": {"system": "Ang II peptide", "assay": "peptide based ELISA of sera from vaccinated mice: binding capacity/titers against the Ang II peptide", "assay_type": "in vivo", "details": "BALB/c mice, peptide-KLH, Alum; for reactivity/titer of induced sera against Ang II: ELISA titer ODmax/2, compared with sera evoked by Ang II peptide (set as 100%)", "description": "(§1) In each Figure, on the X-axis sera derived from animals immunized with indicated peptides are listed. On the Y-axis relative titers of induced sera are shown. Titers derived from Ang II treated animals were set as 100%. Titers were calculated as the sera dilution giving half-maximal binding (i.e. ODmax/2). White bars indicate titers against the peptides that were used for vaccination while black bars represent titers against the Ang II peptide.\nTherefore, in a first set of experiments each position in the Ang II sequence was systematically replaced by amino acids having similar or different features (see Table 1 for position 2). Subsequently all these peptides were chemically linked via an additional N-terminal cysteine to the protein carrier keyhole limpet haemocyanin (KLH) and administrated to mice (BALB/c) together with Alum as adjuvant. Sera from vaccinated mice were used to analyze the immunogenicity of indicated peptides. For this purpose a peptide based ELISA assay was used to define sera titers against the injected peptide (i.e. Ang II peptide variants, VARIOTOPEs) as well as to define the binding capacity of the obtained sera against the Ang II peptide.\nas §1, with “the Figures (FIGS. 1 to 8 for position 1 to position 8) the results derived from these experiments are shown. On” for “each Figure, on”\n(§2) All peptides listed in Table 2 were again chemically linked via the N-terminus to KLH adsorbed to Alum and injected s.c. into experimental animals (BALB/c mice). Sera were analyzed by ELISA and antibody responses induced by the peptide variants were compared to that one induced by the original peptide."}, "[2]": {"system": "injected peptide (Ang II peptide variants, VARIOTOPEs)", "assay": "peptide based ELISA of sera from vaccinated mice: titers against the injected peptide", "assay_type": "in vivo", "details": "BALB/c mice, peptide linked via N-terminal cysteine to KLH, Alum; ELISA titer ODmax/2, compared with Ang II treated animals (set as 100%)", "description": "as §1\nTherefore, in a first set of experiments each position in the Ang II sequence was systematically replaced by amino acids having similar or different features (see Table 1 for position 2). Subsequently all these peptides were chemically linked via an additional N-terminal cysteine to the protein carrier keyhole limpet haemocyanin (KLH) and administrated to mice (BALB/c) together with Alum as adjuvant. […]\nIn the Figures (FIGS. 1 to 8 for position 1 to position 8) the results derived from these experiments are shown. […] Titers were calculated as the sera dilution giving half-maximal binding (i.e. ODmax/2). […]\nas §2"}},
  "note": "No end group written: not given here.",
  "data": [
    {"substance": "Ang IV", "values": [
      {"measurement": "activity relative to Ang II", "setting": "[1]", "value": "approximately 40%"}
    ]},
    {"substance": "C-DAVYIAAA (CDAVYIAAA; also: C-terminal modification)", "values": [
      {"measurement": "reactivity/titer of induced sera against Ang II", "setting": "Ang II peptide", "value": "diminished reactivity"}
    ]},
    {"substance": "C-DAVYIAAF (CDAVYIAAF; also: C-terminal modification)", "values": [
      {"measurement": "sera titer against the injected peptide", "setting": "[2]", "value": "lower compared to the titers induced by the other antigens"},
      {"measurement": "reactivity/titer of induced sera against Ang II", "setting": "Ang II peptide", "value": "diminished reactivity"}
    ]},
    {"substance": "C-DAVYIAPF (CDAVYIAPF; also: C-terminal modification)", "values": [
      {"measurement": "reactivity/titer of induced sera against Ang II", "setting": "Ang II peptide", "value": "diminished reactivity"}
    ]},
    {"substance": "C-DRAAAHAF (CDRAAAHAF; also: C-terminal modification)", "values": [
      {"measurement": "reactivity/titer of induced sera against Ang II", "setting": "Ang II peptide", "value": "diminished reactivity"}
    ]},
    {"substance": "C-DRVYAAPF (CDRVYAAPF; also: C-terminal modification)", "values": [
      {"measurement": "reactivity/titer of induced sera against Ang II", "setting": "Ang II peptide", "value": "diminished reactivity"}
    ]},
    {"substance": "C-DRVYIHAA (CDRVYIHAA; also: C-terminal modification)", "values": [
      {"measurement": "reactivity/titer of induced sera against Ang II", "setting": "Ang II peptide", "value": "diminished reactivity"}
    ]},
    {"substance": "peptide variant with G on position 1: Ang II peptide CDRVYIHPF with G on position 1, KLH-linked; compare GRVYIHPF (SEQ ID NO:6)", "values": [
      {"measurement": "sera titer against the injected peptide", "setting": "[2]", "value": "almost twice as high"},
      {"measurement": "increase of reactivity against Ang II", "setting": "Ang II peptide; versus sera of Ang II treated animals", "value": "~50", "unit": "%"}
    ]}
  ]
}
